# Laboratory results from patent US3957779A, “Benzo-1,2,4-triazines” (Bayer Aktiengesellschaft, priority 1972, dated 1976).
# Legend:
# [1] = tested on: Mycobacterium tuberculosis; assay: MIC, series dilution test, Jenssen egg medium; format: cell-based; conditions: 37°C, read-out: minimum inhibitory concentration
# Description: The compounds of Examples 12 and 13 show minimum inhibitory concentrations of 32 γ/ml of nutrient medium in the series dilution test, Jenssen egg medium, 37°C, against Mycobacterium tuberculosis.
# Escherichia coli C165 [2] = assay: In vivo ED50, intraperitoneal infection of white mice (Table 2); conditions: sc; Escherichia coli C165 i.p. infection; s.c. 15 minutes before infection; 50% survival at 24 hours
# Mycoplasma bovirhinis = assay: MIC, series dilution test, PPLO-medium (Table 1); format: cell-based; conditions: 37°C, 18, 24 and 48 hours, read-out: Minimum inhibitory concentration (MIC)
# Description: (§1) The mycoplasmae were tested in the series dilution test (PPLO-medium) at 37°C, with observations after 18, 24 and 48 hours.
# Mycoplasma granularum = assay: MIC, series dilution test, PPLO-medium (Table 1); format: cell-based; conditions: Acholeplasma granularum, 37°C, 18, 24 and 48 hours, read-out: Minimum inhibitory concentration (MIC)
# Description: as §1
# Mycoplasma gallisepticum = assay: MIC, series dilution test, PPLO-medium (Table 1); format: cell-based; conditions: Mycoplasmoides gallisepticum, 37°C, 18, 24 and 48 hours, read-out: Minimum inhibitory concentration (MIC)
# Description: as §1
# Salmonella species [3] = assay: MIC, plate test (Table 1); format: cell-based; conditions: 37°C, 24 hours, read-out: Minimum inhibitory concentration (MIC)
# Description: (§2) The minimum inhibitory concentration (MIC) was determined in the plate test on a complete nutrient base of the following composition: 10 g of proteose-peptone, 10 g of veal infusion, 2 g of dextrose, 3 g of sodium chloride, 2 g of disodium phosphate, 1 g of sodium acetate, 0.01 g of adenine sulphate, 0.01 g of guanine hydrochloride, 0.01 g of uracil, 0.01 g. of xantin, 12 g of agar-agar and 1 liter of water.
# (§3) The incubation temperature was 37°C and the incubation time was 24 hours.
# Proteus vulgaris 1017 [4] = assay: MIC, plate test (Table 1); format: cell-based; conditions: 37°C, 24 hours, read-out: Minimum inhibitory concentration (MIC)
# Description: as §2, §3
# Escherichia coli A261 = assay: MIC, plate test (Table 1); format: cell-based; conditions: 37°C, 24 hours, read-out: Minimum inhibitory concentration (MIC)
# Description: as §2, §3
# Klebsiella 8085 [5] = assay: MIC, plate test (Table 1); format: cell-based; conditions: 37°C, 24 hours, read-out: Minimum inhibitory concentration (MIC)
# Description: as §2, §3
# Streptococcus pyogenes = assay: MIC, plate test (Table 1); format: cell-based; conditions: with serum, 37°C, 24 hours, read-out: Minimum inhibitory concentration (MIC)
# Description: as §2, §3
# Escherichia coli C165 [6] = assay: MIC, plate test (Table 1); format: cell-based; conditions: 37°C, 24 hours, read-out: Minimum inhibitory concentration (MIC)
# Description: as §2, §3
# Pseudomonas aeruginosa w [7] = assay: MIC, plate test (Table 1); format: cell-based; conditions: 37°C, 24 hours, read-out: Minimum inhibitory concentration (MIC)
# Description: as §2, §3
# Klebsiella 63 = assay: MIC, plate test (Table 1); format: cell-based; conditions: 37°C, 24 hours, read-out: Minimum inhibitory concentration (MIC)
# Description: as §2, §3
# [8] = tested on: Staphylococcus aureus 133; assay: MIC, plate test (Table 1); format: cell-based; conditions: 37°C, 24 hours, read-out: Minimum inhibitory concentration (MIC)
# Description: as §2, §3
# Pseudomonas aeruginosa B [9] = assay: MIC, plate test (Table 1); format: cell-based; conditions: 37°C, 24 hours, read-out: Minimum inhibitory concentration (MIC)
# Description: as §2, §3
# Klebsiella 8085 [10] = assay: In vivo ED50, intraperitoneal infection of white mice (Table 2); conditions: sc; Klebsiella 8085 i.p. infection; s.c. 15 minutes before infection; 50% survival at 24 hours
# Brucella species = format: cell-based; conditions: 100 γ/ml, 24 hours, 37°C
# Escherichia coli 14 = assay: Turbidity test in Mueller-Hinton nutrient solution; format: cell-based; conditions: 100 γ/ml, 24 hours, 37°C
# [11] = tested on: Pasteurella pseudotuberculosis; format: cell-based; conditions: 100 γ/ml, 24 hours, 37°C
# Streptococcus pyogenes W = assay: Turbidity test in Mueller-Hinton nutrient solution; format: cell-based; conditions: 100 γ/ml, 24 hours, 37°C
# [12] = tested on: Aeromonas hydrophila species; assay: Turbidity test in Mueller-Hinton nutrient solution; format: cell-based; conditions: 100 γ/ml, 24 hours, 37°C
# Enterobacter species = assay: Turbidity test in Mueller-Hinton nutrient solution; format: cell-based; conditions: 100 γ/ml, 24 hours, 37°C
# Borrelia species = assay: Turbidity test in Mueller-Hinton nutrient solution; format: cell-based; conditions: 100 γ/ml, 24 hours, 37°C
# Clostridium botulinium = format: cell-based
# Pseudomonas aeruginosa w [13] = assay: Turbidity test in Mueller-Hinton nutrient solution; format: cell-based; conditions: 100 γ/ml, 24 hours, 37°C
# [14] = tested on: Corynebacterium pyogenes M; assay: Turbidity test in Mueller-Hinton nutrient solution; format: cell-based; conditions: 100 γ/ml, 24 hours, 37°C
# [15] = tested on: Proteus indole-negative, species; assay: Turbidity test in Mueller-Hinton nutrient solution; format: cell-based; conditions: 100 γ/ml, 24 hours, 37°C
# [16] = tested on: Neisseria catarrhalis species; assay: Turbidity test in Mueller-Hinton nutrient solution; format: cell-based; conditions: 100 γ/ml, 24 hours, 37°C
# [17] = tested on: Bordetella bronchiseptica; assay: Turbidity test in Mueller-Hinton nutrient solution; format: cell-based; conditions: 100 γ/ml, 24 hours, 37°C
# Klebsiella K 10 = assay: Turbidity test in Mueller-Hinton nutrient solution; format: cell-based; conditions: 100 γ/ml, 24 hours, 37°C
# Klebsiella K 63 = assay: Turbidity test in Mueller-Hinton nutrient solution; format: cell-based; conditions: 100 γ/ml, 24 hours, 37°C
# Salmonella species [18] = assay: Turbidity test in Mueller-Hinton nutrient solution; format: cell-based; conditions: 100 γ/ml, 24 hours, 37°C
# Description: (§4) 100 γ/ml of the compounds according to the invention are dissolved in Mueller-Hinton nutrient solution, with addition of 0.1% of glucose. The nutrient solution contains […] microbes per ml. The mixture is incubated in glass test tubes for 24 hours at 37°C and after this time the degree of turbidity is determined.
# Shigella species = assay: Turbidity test in Mueller-Hinton nutrient solution; format: cell-based; conditions: 100 γ/ml, 24 hours, 37°C
# Description: as §4
# Serratia species = assay: Turbidity test in Mueller-Hinton nutrient solution; format: cell-based; conditions: 100 γ/ml, 24 hours, 37°C
# Lactobacillus species = assay: Turbidity test in Mueller-Hinton nutrient solution; format: cell-based; conditions: 100 γ/ml, 24 hours, 37°C
# Escherichia coli A 261 = assay: Turbidity test in Mueller-Hinton nutrient solution; format: cell-based; conditions: 100 γ/ml, 24 hours, 37°C
# [19] = tested on: Corynebacterium diphtheriae gravis; assay: Turbidity test in Mueller-Hinton nutrient solution; format: cell-based; conditions: 100 γ/ml, 24 hours, 37°C
# Bacteroides species = assay: Turbidity test in Mueller-Hinton nutrient solution; format: cell-based; conditions: 100 γ/ml, 24 hours, 37°C
# Enterococcus species = assay: Turbidity test in Mueller-Hinton nutrient solution; format: cell-based; conditions: 100 γ/ml, 24 hours, 37°C
# Clostridium tetani = format: cell-based; conditions: 100 γ/ml, 24 hours, 37°C
# Pseudomonas aeruginosa B [20] = assay: Turbidity test in Mueller-Hinton nutrient solution; format: cell-based; conditions: 100 γ/ml, 24 hours, 37°C
# [21] = tested on: Proteus indole-positive, species; assay: Turbidity test in Mueller-Hinton nutrient solution; format: cell-based; conditions: 100 γ/ml, 24 hours, 37°C
# [22] = tested on: Staphylococcus aureus 133; assay: Turbidity test in Mueller-Hinton nutrient solution; format: cell-based; conditions: 100 γ/ml, 24 hours, 37°C
# Escherichia coli C 165 = assay: Turbidity test in Mueller-Hinton nutrient solution; format: cell-based; conditions: 100 γ/ml, 24 hours, 37°C
# Proteus vulgaris 1017 [23] = assay: Turbidity test in Mueller-Hinton nutrient solution; format: cell-based; conditions: 100 γ/ml, 24 hours, 37°C
# [24] = tested on: Haemophilus influenzae 281; assay: Turbidity test in Mueller-Hinton nutrient solution; format: cell-based; conditions: 100 γ/ml, 24 hours, 37°C
# [25] = tested on: Diplococcus pneumoniae species; assay: Turbidity test in Mueller-Hinton nutrient solution; format: cell-based; conditions: 100 γ/ml, 24 hours, 37°C
structure (smiles),measurement,setting,value
"CNc1n[n+]([O-])c2ccccc2[n+]1[O-] [Example 1, 3-(N-methylamino)-benzo-1,2,4-triazine-1,4-di-N-oxide]",MIC,[1],32 µg/mL
same,ED50,Escherichia coli C165 [2],25 mg/kg
same,MIC,Mycoplasma bovirhinis,1 µg/mL
same,MIC,Mycoplasma granularum,1 µg/mL
same,MIC,Mycoplasma gallisepticum,1 µg/mL
same,MIC,Salmonella species [3],8 to 16 µg/mL
same,MIC,Proteus vulgaris 1017 [4],128 µg/mL
same,MIC,Escherichia coli A261,8 µg/mL
same,MIC,Klebsiella 8085 [5],8 µg/mL
same,MIC,Streptococcus pyogenes,128 µg/mL
same,MIC,Escherichia coli C165 [6],8 µg/mL
same,MIC,Pseudomonas aeruginosa w [7],128 µg/mL
same,MIC,Klebsiella 63,128 µg/mL
same,MIC,[8],8 µg/mL
same,MIC,Pseudomonas aeruginosa B [9],8 µg/mL
same,ED50,Klebsiella 8085 [10],25 mg/kg
"O=C(CCl)Nc1n[n+]([O-])c2ccccc2[n+]1[O-] [Example 9, 3-(N-chloroacetylamino)-benzo-1,2,4-triazine-1,4-di-N-oxide]",ED50,Klebsiella 8085 [10],25 mg/kg
"NC(=O)Nc1n[n+]([O-])c2ccccc2[n+]1[O-] [Example 13, 1,4-dioxo-benzo-1,2,4-triazin-3-yl-urea]",turbidity after incubation,Brucella species,remained free of turbidity
same,turbidity after incubation,Escherichia coli 14,remained free of turbidity
same,turbidity after incubation,[11],remained free of turbidity
same,turbidity after incubation,Streptococcus pyogenes W,remained free of turbidity
same,turbidity after incubation,[12],remained free of turbidity
same,turbidity after incubation,Enterobacter species,remained free of turbidity
same,turbidity after incubation,Borrelia species,remained free of turbidity
same,turbidity after incubation,Clostridium botulinium,remained free of turbidity
same,MIC,[1],32 µg/mL
same,turbidity after incubation,Pseudomonas aeruginosa w [13],remained free of turbidity
same,turbidity after incubation,[14],remained free of turbidity
same,turbidity after incubation,[15],remained free of turbidity
same,turbidity after incubation,[16],remained free of turbidity
same,turbidity after incubation,[17],remained free of turbidity
same,turbidity after incubation,Klebsiella K 10,remained free of turbidity
same,turbidity after incubation,Klebsiella K 63,remained free of turbidity
same,turbidity after incubation,Salmonella species [18],remained free of turbidity
same,turbidity after incubation,Shigella species,remained free of turbidity
same,turbidity after incubation,Serratia species,remained free of turbidity
same,turbidity after incubation,Lactobacillus species,remained free of turbidity
same,turbidity after incubation,Escherichia coli A 261,remained free of turbidity
same,turbidity after incubation,[19],remained free of turbidity
same,turbidity after incubation,Bacteroides species,remained free of turbidity
same,turbidity after incubation,Enterococcus species,remained free of turbidity
same,turbidity after incubation,Clostridium tetani,remained free of turbidity
same,turbidity after incubation,Pseudomonas aeruginosa B [20],remained free of turbidity
same,turbidity after incubation,[21],remained free of turbidity
same,turbidity after incubation,[22],remained free of turbidity
same,turbidity after incubation,Escherichia coli C 165,remained free of turbidity
same,turbidity after incubation,Proteus vulgaris 1017 [23],remained free of turbidity
same,turbidity after incubation,[24],remained free of turbidity
same,turbidity after incubation,[25],remained free of turbidity
